Measured values from patent US20230242956A1, “POLYPHOSPHATE KINASE MUTANT, ENGINEERED STRAIN AND APPLICATION THEREOF” (ZHEJIANG UNIVERSITY OF TECHNOLOGY, priority 2022, published 2023).

Target: T1, Cytophaga hutchinsonii polyphosphate kinase (ChPPK) mutant A79G/S106C/I108F/L285P (parent SEQ ID NO: 2) (Cytophaga hutchinsonii, UniProt A0A6N4SMB5, A79G/I108F/L285P/S106C)
T1 sequence (A0A6N4SMB5 with tags, fused parts or gaps A79G/S106C/I108F/L285P): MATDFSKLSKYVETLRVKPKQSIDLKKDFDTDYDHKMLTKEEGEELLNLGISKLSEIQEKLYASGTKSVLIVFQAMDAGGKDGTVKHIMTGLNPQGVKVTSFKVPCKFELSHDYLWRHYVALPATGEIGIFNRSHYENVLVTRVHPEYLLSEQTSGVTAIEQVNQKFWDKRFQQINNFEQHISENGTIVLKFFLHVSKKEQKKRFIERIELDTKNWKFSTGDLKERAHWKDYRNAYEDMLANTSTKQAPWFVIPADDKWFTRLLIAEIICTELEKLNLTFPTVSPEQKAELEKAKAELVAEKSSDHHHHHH
Test: Kinetic parameters of mutant ChPPK/A79G/S106C/I108F/L285P (pure enzyme, pseudo-one-substrate kinetic model, ATP by HPLC)
Assay type: biochemical
Conditions: mutant versus wild-type; substrate AMP or PPA
Procedure: (2) Pure enzyme: 5 mL of the crude enzyme solution was diluted with 40 mL of potassium phosphate buffer (20 mM, pH 7.2), and then applied to a HisTrap HP purification column of GE Healthcare (10 mL column, pre-washed with a pH 7.2, 20 mM potassium phosphate buffer containing 500 mM NaCl). The resulting purification column was eluted with 100 mL of washing buffer (a pH7.2, 20 mM potassium phosphate buffer containing 500 mM sodium chloride and 50 mM imidazole) at a rate of 0.5 mL/min to remove the absorbed protein impurities, and then eluted with an elution buffer (a pH7.2, 20 mM potassium phosphate buffer containing 500 mM sodium chloride and 50 mM imidazole) at a speed of 0.5 mL/min to collect an elution solution containing the target protein. Then the elution solution containing the target protein was dialyzed in a dialysis bag (the MWCO of the dialysis bag was 14 KDa) with a pH7.2 of 20 mM potassium phosphate buffer for 48h, and the retentate was taken as pure enzyme. The concentration of the pure enzyme was determined by Beyotime BCA Protein Assay Kit(P0012), and the amount of the pure enzyme used in the following examples was calculated by protein content.
0.4 mg of the crude enzyme solution prepared by the method in Example 2 or 0.05 mg of the pure enzyme, polyphosphoric acid (PPA) at a final concentration of 1.6 g/L, adenosine phosphate (AMP) at a final concentration of 2.25 mM, and MgCl2 at a final concentration of 10 mM were added to 10 mL of 50 mM potassium phosphate buffer (pH 7.5). The reaction solution was incubated at 37° C. for 5 min, and then 10 mL of 0.2 M phosphoric acid solution was added to terminate the reaction. The ATP content in the solution was determined by HPLC method. […]
The wild-type Ecoli.BL21(DE3)-ChPPK constructed by the method of Example 1 and the engineered strain Ecoli.BL21(DE3)-ChPPK/A79G/S106C/I108F/L285P constructed by the method of Example 6 were used to prepare pure enzymes by the method of Example 2. Km and Kcat were calculated by pseudo-one-substrate kinetic model. […]

`Nc1ncnc2c1ncn2[C@@H]1O[C@H](COP(=O)(O)O)[C@@H](O)[C@H]1O` [AMP, adenosine phosphate] was tested, and the “Km, wild-type compared with mutant (in words)” value was “similar”, the “catalytic efficiency (kcat/Km) of the mutant, fold higher than wild-type ChPPK” value was 16 fold and the “turnover number (kcat value), mutant compared with wild-type (in words)” value was “increased”.
